In patent US20230087118A1, “IMIDAZO[1,2-a][sequence] DERIVATIVES AND THEIR USE IN THE TREATMENT OF DISEASE” (priority 2019, published 2023):
Where a name gives a salt, the structure may show the parent alone.

Biological target: T1, IRAK4 (Homo sapiens, UniProt Q9NWZ3)
T1 sequence (Q9NWZ3 1-460): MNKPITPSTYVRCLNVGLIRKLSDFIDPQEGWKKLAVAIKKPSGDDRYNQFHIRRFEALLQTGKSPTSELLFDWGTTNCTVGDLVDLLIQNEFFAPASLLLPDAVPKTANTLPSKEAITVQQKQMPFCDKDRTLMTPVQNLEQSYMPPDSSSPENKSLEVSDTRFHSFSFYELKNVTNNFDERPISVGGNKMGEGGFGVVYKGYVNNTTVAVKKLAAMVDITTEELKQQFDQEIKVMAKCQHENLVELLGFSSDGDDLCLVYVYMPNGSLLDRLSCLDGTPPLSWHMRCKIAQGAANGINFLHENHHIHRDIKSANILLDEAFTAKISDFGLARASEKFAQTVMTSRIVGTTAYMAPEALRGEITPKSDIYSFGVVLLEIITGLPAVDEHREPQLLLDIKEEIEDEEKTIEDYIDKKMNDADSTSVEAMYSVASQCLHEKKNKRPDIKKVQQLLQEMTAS
Assay: biochemical
Settings: not given

IC50 [µM]	Structure (SMILES)
0.0006	CC(C)Oc1cc2nc(C34CCC(C3)OC4)cn2cc1C(=O)Nc1cnn2cccnc12 (stereo not drawn) [Example 416, 2-(2-Oxabicyclo[2.2.1]heptan-4-yl)-7-isopropoxy-N-(pyrazolo[1,5-a]pyrimidin-3-yl)imidazo[1,2-a]pyridine-6-carboxamide]
0.0599	CC12CC(c3cn4cc(C(=O)Nc5cccc(C(F)F)n5)ncc4n3)(CO1)C2 [Example 334, N-(6-(Difluoromethyl)pyridin-2-yl)-2-(1-methyl-2-oxabicyclo[2.1.1]hexan-4-yl)imidazo[1,2-a]pyrazine-6-carboxamide]
0.0063	CCOc1nc(C(=O)Nc2cc(F)cn(C)c2=O)cn2cc([C@@H]3CCCOC3)nc12 (single isomer, unassigned) [Example 596]
0.0003	CC(C)Oc1cc2nc(C34CCC(C)(C3)OC4)cn2cc1C(=O)Nc1cccc(C#N)n1 (stereo not drawn) [Example 509, N-(6-cyanopyridin-2-yl)-7-isopropoxy-2-(1-methyl-2-oxabicyclo[2.2.1]heptan-4-yl)imidazo[1,2-a]pyridine-6-carboxamide]
0.0013	CCC(C)Oc1nc2nc(C34COC(C)(C3)C4)cn2cc1C(=O)Nc1cnn2cc(C)cnc12 (single isomer, unassigned) [Example 642]
0.0048	CCCOc1nc(C(=O)Nc2cccc(C(F)(F)F)n2)cn2cc(C34COC(C)(C3)C4)nc12 [Example 343, 2-(1-Methyl-2-oxabicyclo[2.1.1]hexan-4-yl)-8-propoxy-N-(6-(trifluoromethyl)pyridin-2-yl)imidazo[1,2-a]pyrazine-6-carboxamide]
0.0005	CC(C)Oc1nc2nc([C@@]34CC[C@@](C)(C3)OC4)cn2cc1C(=O)Nc1cccn(C)c1=O (single isomer, unassigned) [Example 652]
0.0056	CCOc1nc(C(=O)Nc2cccnc2OC)cn2cc([C@@H]3CCOC3)nc12 (single isomer, unassigned) [Example 599]
0.0006	Cc1cnc2c(NC(=O)c3cn4cc([C@]56CC[C@](C)(C5)OC6)nc4nc3OC(C)C)cnn2c1 (single isomer, unassigned) [Example 617]
0.0016	Cc1cnc2c(NC(=O)c3cn4cc(C56CCC(C)(C5)OC6)nc4cc3OC3CC3)cnn2c1 (stereo not drawn) [Example 555]
0.0073	CCOc1nc(C(=O)Nc2cc(F)ccc2OC)cn2cc(C34COC(C)(C3)C4)nc12 [Example 484, 8-Ethoxy-N-(5-fluoro-2-methoxyphenyl)-2-(1-methyl-2-oxabicyclo[2.1.1]hexan-4-yl)imidazo[1,2-a]pyrazine-6-carboxamide]

The remaining lines, values behind:

Structure (SMILES)	IC50 [µM]
CC12CCC(c3cn4cc(C(=O)Nc5ccn(C(F)F)n5)c(OC5CCC5)cc4n3)(CO1)C2 (stereo not drawn) [Example 418, 7-Cyclobutoxy-N-(1-(difluoromethyl)-1H-pyrazol-3-yl)-2-(1-methyl-2-oxabicyclo[2.2.1]heptan-4-yl)imidazo[1,2-a]pyridine-6-carboxamide]	0.0021
COc1cc2nc(C34COC(C)(C3)C4)cn2cc1C(=O)Nc1cccc(C(F)F)n1 [Example 293, N-(6-(difluoromethyl)pyridin-2-yl)-7-methoxy-2-(1-methyl-2-oxabicyclo[2.1.1]hexan-4-yl)imidazo[1,2-a]pyridine-6-carboxamide]	0.0028
CC(C)Oc1cc2nccn2cc1C(=O)Nc1cccc(C(F)F)n1 [Example 220]	0.0115
CC(C)Oc1cc2nc(C34COC(C)(C3)C4)cn2cc1C(=O)Nc1cc(C#N)cn(C)c1=O [Example 262, N-(5-cyano-1-methyl-2-oxo-1,2-dihydropyridin-3-yl)-7-isopropoxy-2-(1-methyl-2-oxabicyclo[2.1.1]hexan-4-yl)imidazo[1,2-a]pyridine-6-carboxamide]	0.028
CCOc1nc(C(=O)Nc2cccnc2OC)cn2cc(C34COC(C)(C3)C4)nc12 [Example 225]	0.0052
COc1cc2nc(C3CCOCC3)cn2cc1C(=O)Nc1cnn(C)c1C [Example 194]	0.624
COc1ncccc1NC(=O)c1cn2cc(C34COC(C)(C3)C4)nc2c(C)c1OC [Example 291, 7-Methoxy-N-(2-methoxypyridin-3-yl)-8-methyl-2-(1-methyl-2-oxabicyclo[2.1.1]hexan-4-yl)imidazo[1,2-a]pyridine-6-carboxamide]	0.0125
CC(C)Oc1cc2nc(C34CCC(C)(C3)OC4)cn2cc1C(=O)Nc1cccc(C(F)F)n1 (stereo not drawn) [Example 243]	0.0002
COc1ccc(Cl)cc1NC(=O)c1cn2cc(C3CCOCC3)nc2cc1OC [Example 112]	0.514
O=C(Nc1cccc(C(F)F)n1)c1cc(Cl)c2nc(C3CCOCC3)cn2c1 [Example 214]	0.0715
Cc1cnc2c(NC(=O)c3cn4cc(C56CCC(C)(C5)OC6)nc4cc3OC3CCC3)cnn2c1 (stereo not drawn) [Example 426, 7-Cyclobutoxy-2-(1-methyl-2-oxabicyclo[2.2.1]heptan-4-yl)-N-(6-methylpyrazolo[1,5-a]pyrimidin-3-yl)imidazo[1,2-a]pyridine-6-carboxamide]	0.0003

Same assay, conditions: IRAK4 Biochemical Assay (1 mM ATP, 2 h) IC50 (μM), 1 mM ATP, 2 h, 100 pM IRAK4

IC50 [µM]	Structure (SMILES)
0.0003	CC(C)Oc1cc2nc(C34COC(C)(C3)C4)cn2cc1C(=O)Nc1cnc2cccnn12 [Example 321, N-(imidazo[1,2-b]pyridazin-3-yl)-7-isopropoxy-2-(1-methyl-2-oxabicyclo[2.1.1]hexan-4-yl)imidazo[1,2-a]pyridine-6-carboxamide 2,2,2-trifluoroacetate]
0.0055	COc1cccc(NC(=O)c2cn3cc(C4CC4)nc3cc2OCC2CC3CCC2O3)n1 (stereo not drawn) [Example 478, 7-((7-Oxabicyclo[2.2.1]heptan-2-yl)methoxy)-2-cyclopropyl-N-(6-methoxypyridin-2-yl)imidazo[1,2-a]pyridine-6-carboxamide]

Second part, the compound before the results:

Structure (SMILES)	IC50 [µM]
CC(C)Oc1cc2nc(C34CCC(C)(C3)OC4)cn2cc1C(=O)Nc1cc(F)n(C)n1 (stereo not drawn) [Example 284, N-(5-fluoro-1-methyl-1H-pyrazol-3-yl)-7-isopropoxy-2-(1-methyl-2-oxabicyclo[2.2.1]heptan-4-yl)imidazo[1,2-a]pyridine-6-carboxamide trifluoroacetate]	0.0056
CCOc1nc(C(=O)Nc2cccnc2OC)cn2cc(C3CC3)nc12 [Example 279, 2-Cyclopropyl-8-ethoxy-N-(2-methoxypyridin-3-yl)imidazo[1,2-a]pyrazine-6-carboxamide trifluoroacetate]	0.0038
COc1nc(C(=O)Nc2cccc(C(F)(F)F)n2)cn2cc(C3CCOCC3)nc12 [Example 76]	0.0095
CCOc1nc(C(=O)Nc2cccnc2OC)cn2cc(C34CCC(C)(C3)OC4)nc12 (stereo not drawn) [Example 276, 8-Ethoxy-N-(2-methoxypyridin-3-yl)-2-(1-methyl-2-oxabicyclo[2.2.1]heptan-4-yl)imidazo[1,2-a]pyrazine-6-carboxamide trifluoroacetate]	0.0009
O=C(Nc1cccc(C(F)F)n1)c1cn2cc(C3CC3)nc2cc1OC1CC(C(F)F)C1 (stereo not drawn) [Example 477, 2-Cyclopropyl-7-(3-(difluoromethyl)cyclobutoxy)-N-(6-(difluoromethyl)pyridin-2-yl)imidazo[1,2-a]pyridine-6-carboxamide]	0.0011
CC(C)Oc1cc2nc(C34COC(C)(C3)C4)cn2cc1C(=O)Nc1cc2ccccn2n1 [Example 298, 7-Isopropoxy-2-(1-methyl-2-oxabicyclo[2.1.1]hexan-4-yl)-N-(pyrazolo[1,5-a]pyridin-2-yl)imidazo[1,2-a]pyridine-6-carboxamide trifluoroacetate]	0.063
